Molecular target: T1, hTAS2R14 (Homo sapiens, UniProt Q9NYV8)
T1 construct: first 45 amino acids of rat somatostatin receptor type 3 (sst3 membrane-targeting tag) (N); expressed in transfected cells; host or cells: HEK293 T-Rex Flp-In cells stably expressing Gα16-gust44; induced with doxycycline
T1 sequence (Q9NYV8 1-317): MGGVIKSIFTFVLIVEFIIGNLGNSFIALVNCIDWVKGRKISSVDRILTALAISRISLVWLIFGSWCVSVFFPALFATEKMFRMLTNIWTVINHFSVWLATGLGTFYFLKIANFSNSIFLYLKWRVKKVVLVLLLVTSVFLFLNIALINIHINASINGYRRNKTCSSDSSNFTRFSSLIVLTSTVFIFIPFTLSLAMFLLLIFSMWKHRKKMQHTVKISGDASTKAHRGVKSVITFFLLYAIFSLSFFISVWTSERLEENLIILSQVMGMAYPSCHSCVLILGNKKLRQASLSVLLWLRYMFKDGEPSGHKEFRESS
Test: Calcium assay of hTAS2R14 activation/inhibition in HEK293 T-Rex Flp-In cells
Type: cell-based
Details: for IC50, Simultaneous / Threshold, Simultaneous: simultaneous addition, n.b. = no blocking; for IC50 / Threshold, Stepwise: stepwise addition
Excerpt: For functional expression of the human bitter taste receptor hTAS2R39, HEK293 T-Rex Flp-In cells (Invitrogen, San Diego, CA, USA) were used, stably expressing the chimeric G-protein α-subunit Gα16-gust44 (cloned into pcDNA4 (Invitrogen)) and the human bitter receptor genes for hTAS2R39 (cloned into pcDNA5/FRT (Invitrogen)). The bitter receptor gene contained a DNA sequence encoding the first 45 amino acids of rat somatostatin receptor type 3 at its 5′ end (the receptor expression was achieved according to [18] with exception of the HSV-tag), in order to improve membrane targeting of the receptor protein. The same procedure was applied for stable expression of hTAS2R14. Cells were maintained in Dulbecco's Modified Eagle's Medium (DMEM) and 10% (v/v) tetracycline-free FBS (both Lonza, Verviers, Belgium) supplemented with blasticidin (5 μg/mL), geneticin (400 μg/mL) and hygromycin (100 μg/mL) (all from Invitrogen). Cells were grown and maintained at 37 °C and 5% (v/v) CO2.
Cells were seeded into poly-L-lysine-coated (Sigma-Aldrich) 96-well plates (black wall, clear bottom, Greiner bio-one, Frickenhausen, Germany) at a density of 7*10^3 cells in 100 μL/well and cultured for 24 h. Transcription of the receptors was induced by adding 0.25 μg/mL doxycycline (Sigma-Aldrich). […] One hour after loading, cells were washed with Tyrode's buffer and taken up in Tyrode's buffer. Stock solutions of test compounds were prepared in DMSO and diluted to the appropriate concentration in Tyrode's buffer, not exceeding a DMSO concentration of 1% (v/v).
Two methods of compound administration were applied: simultaneous and stepwise addition of potential antagonist and agonist. The first 17 s before compound addition were used for baseline determination. For the simultaneous method, agonist and potential antagonist were pre-mixed, administered after 17 s, and fluorescence was measured for in total 90 s. For the stepwise method, after 17 s, the potential antagonist was added, fluorescence was measured until 120 s, and after 120 s the agonist was added and measured for another 120 s, in total 240 s. […] Each experiment was performed at least in duplicate in separate experiments (as indicated for each figure).
Data processing was done as reported previously. In brief, SoftMax Pro 5.4 software (Molecular Devices Corporation) was used to plot the fluorescence signals. The fluorescence value (ΔF/F0), representing receptor activity, was calculated by subtracting the baseline fluorescence (F0) prior to loading from the maximum fluorescence (F) after compound addition, divided by the signal of the baseline in order to normalize background fluorescence. Dose-response curves were established as non-linear regression curves using Graph Pad Prism (version 4 for Windows, Graph Pad Software, San Diego, CA, USA). Half-maximal effective concentrations (EC50) and half-maximal inhibitory concentrations (IC50) were calculated. Error bars reflect the standard error of the mean (SEM). Statistical analysis was performed in Graph Pad Prism (one-way ANOVA at 5% risk level, followed by Bonferroni's post hoc test).
Inhibition was indicated when [drawing 1] . In case of indicated inhibition, flavanones were applied at different concentrations, in order to test for dose-dependent inhibition, at the EC80 concentration of the agonist. […] To investigate the specificity of flavanones for inhibition of hTAS2R39 and hTAS2R14, another bitter taste receptor, hTAS2R16 (not known to be activated by flavonoids), was used in inhibition experiments ( File S3 ) towards its agonist salicin.

[1] = inhibition of hTAS2R14 response to 70 μM genistein
[2] = inhibition of hTAS2R14 response to 640 μM ECG

| Compound | blocking of hTAS2R14 (640 μM ECG, simultaneous application) | inhibition of hTAS2R14 (640 μM ECG, stepwise application) | IC50, Simultaneous [1] | Threshold, Simultaneous [1] | IC50 [1] [µM] | Threshold, Stepwise [1] [µM] | IC50, Simultaneous [2] | Threshold, Simultaneous [2] | IC50 [2] [µM] | Threshold, Stepwise [2] [µM] | inhibition of hTAS2R14 by probenecid in the buffer (0.5 mM probenecid in Tyrode's buffer, agonist equol) |
| --- | --- | --- | --- | --- | --- | --- | --- | --- | --- | --- | --- |
| COc1ccc2c(c1)C(=O)CC(c1ccc(F)cc1)O2 (stereo not shown) [Compound 6, 4′-Fluoro-6-methoxyflavanone] | no blocking | an inhibitory effect was observed | n.b. | n.b. | ~500 | 32 | n.b. | n.b. | 79 ± 25 | <8 | – |
| COc1ccc2c(c1)C(=O)CC(c1ccccc1)O2 (stereo not shown) [Compound 11, 6-Methoxyflavanone] | – | – | n.b. | n.b. | 741 ± 143 | 500 | n.b. | n.b. | 447 ± 123 | 250 | – |
| CCCN(CCC)S(=O)(=O)c1ccc(C(=O)O)cc1 [probenecid, p-(dipropylsulfamyl)benzoic acid, reference compound] | – | – | – | – | – | – | – | – | – | – | did not lead to inhibition |

Reference: article PMC3983201, “6-Methoxyflavanones as Bitter Taste Receptor Blockers for hTAS2R39” (PLoS ONE, 2014)
